The values below are quoted from earlier work in patent US20240170108A1, “METHOD AND SYSTEM FOR GENE EXPRESSION PREDICTION-BASED SCREENING OF DRUG-LIKE MOLECULES” (Tata Consultancy Services Limited, priority 2022, published 2024).

The series deals with VCAP cell line. To be noted: 10 μM concentration dose, 6 hrs of exposure.

Turning to `O=c1cc(-c2ccc(O)cc2)oc2cc(O[C@@H]3O[C@H](CO)[C@@H](O)[C@H](O)[C@H]3O)cc(O)c12` [Cosmosiin], for the setting “gene APP”, the “Characteristic Direction, APP (Gene ID 351)” value is recorded as −0.0047. Also, under “gene ARHGEF12”, the “Characteristic Direction, ARHGEF12 (Gene ID 23365)” value is recorded as −0.0376. The “Characteristic Direction, ASAH1 (Gene ID 427)” value (gene ASAH1) is recorded as −0.0172. The “Characteristic Direction, ATF1 (Gene ID 466)” value (gene ATF1) is −0.0167. Also, the “Characteristic Direction, BRCA1 (Gene ID 672)” value (gene BRCA1) was −0.0305. In addition, the “Characteristic Direction, CSNK1A1 (Gene ID 1452)” value (gene CSNK1A1) is on record as −0.0011. Further, the “Characteristic Direction, EED (Gene ID 8726)” value (gene EED) was −0.0170. Moreover, under “gene EGF”, the “Characteristic Direction, EGF (Gene ID 1950)” value is reported as 0.0114. Moreover, the “Characteristic Direction, ETV1 (Gene ID 2115)” value (gene ETV1) was −0.0108. Besides, for the setting “gene FOXO3”, the “Characteristic Direction, FOXO3 (Gene ID 2309)” value is recorded as −0.0187. Also, the “Characteristic Direction, HLA-DMA (Gene ID 3108)” value (gene HLA-DMA) is on record as −0.0178. Besides, under “gene IL1B”, the “Characteristic Direction, IL1B (Gene ID 3553)” value is recorded as 0.0082. In addition, the “Characteristic Direction, NFATC4 (Gene ID 4776)” value (gene NFATC4) was −0.0087. Moreover, under “gene NOS3”, the “Characteristic Direction, NOS3 (Gene ID 4846)” value is recorded as 0.0363. In addition, the “Characteristic Direction, PSMD4 (Gene ID 5710)” value (gene PSMD4) was −0.0161. Besides, the “Characteristic Direction, PSME1 (Gene ID 5720)” value (gene PSME1) is −0.0142. For the same compound, for the setting “gene RALA”, the “Characteristic Direction, RALA (Gene ID 5898)” value is given as 0.0206. Further, the “Characteristic Direction, RHEB (Gene ID 6009)” value (gene RHEB) is 0.0037. Further, the “Characteristic Direction, RHOA (Gene ID 387)” value (gene RHOA) is reported as −0.0166. In addition, where the note is “gene SERPINE1”, the “Characteristic Direction, SERPINE1 (Gene ID 5054)” value was −0.0407. Further, the “Characteristic Direction, SOX2 (Gene ID 6657)” value (gene SOX2) is recorded as 0.0276. Besides, the “Characteristic Direction, TBP (Gene ID 6908)” value (gene TBP) is reported as −0.0084. For the setting “gene TERT”, the “Characteristic Direction, TERT (Gene ID 7015)” value is recorded as 0.0054.
